Tests used:
[1] = biological target: T1, OATP1B3 (Homo sapiens, UniProt Q9NPD5); experiment: In vitro drug-drug interaction studies: OATP1B3 transporter inhibition; type: in vitro ADME; settings: based upon in vitro studies
T1 sequence (Q9NPD5 1-702): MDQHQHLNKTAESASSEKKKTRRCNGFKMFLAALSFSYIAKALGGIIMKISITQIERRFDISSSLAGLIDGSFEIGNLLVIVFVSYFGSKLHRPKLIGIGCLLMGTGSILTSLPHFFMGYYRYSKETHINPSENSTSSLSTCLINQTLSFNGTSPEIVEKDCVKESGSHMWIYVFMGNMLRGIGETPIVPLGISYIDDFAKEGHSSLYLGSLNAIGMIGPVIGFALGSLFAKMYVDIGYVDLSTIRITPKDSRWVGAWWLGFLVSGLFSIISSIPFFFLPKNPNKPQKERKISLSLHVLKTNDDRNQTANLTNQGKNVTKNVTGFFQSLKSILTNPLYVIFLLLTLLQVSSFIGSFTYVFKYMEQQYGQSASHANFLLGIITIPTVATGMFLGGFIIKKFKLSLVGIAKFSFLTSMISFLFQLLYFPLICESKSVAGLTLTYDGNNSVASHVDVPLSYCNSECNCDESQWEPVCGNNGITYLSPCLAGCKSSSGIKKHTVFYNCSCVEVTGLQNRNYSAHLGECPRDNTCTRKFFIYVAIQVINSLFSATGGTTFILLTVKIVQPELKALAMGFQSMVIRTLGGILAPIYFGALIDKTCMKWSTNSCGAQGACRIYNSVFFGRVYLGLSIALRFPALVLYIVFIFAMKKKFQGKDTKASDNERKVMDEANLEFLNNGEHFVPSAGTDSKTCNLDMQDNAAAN

[2] = test system: CYP3A5; experiment: In vitro drug-drug interaction studies: CYP3A5 induction; type: in vitro ADME; settings: based upon in vitro studies
[3] = test system: monkeys; experiment: Repeat-dose toxicity studies in monkeys (up to 9-month); type: in vivo
[4] = as above; type: in vivo; settings: monkey, in vivo
[5] = test system: rats; experiment: 6-month repeat-dose toxicity study in rats; type: in vivo
[6] = 6-month repeat-dose toxicity study in rats; type: in vivo; settings: rat, in vivo, po, 1000 mg/kg/day
[7] = biological target: P-gp (Homo sapiens, UniProt P08183); experiment: In vitro drug-drug interaction studies: P-gp transporter inhibition; type: in vitro ADME; settings: based upon in vitro studies
[8] = test system: rabbits; experiment: Rabbit embryofetal development study; type: in vivo
[9] = Rabbit embryofetal development study; type: in vivo; settings: female, rabbit, in vivo, po; plasma toxicokinetics on Gestational Day 19, 120 mg/kg/day; read-out: AUC0-24 at rabbit EFD NOEL
[10] = biological target: T2, OCT1 (Homo sapiens, UniProt O15245); experiment: In vitro drug-drug interaction studies: OCT1 transporter inhibition; type: in vitro ADME; settings: based upon in vitro studies
T2 sequence (O15245 1-554): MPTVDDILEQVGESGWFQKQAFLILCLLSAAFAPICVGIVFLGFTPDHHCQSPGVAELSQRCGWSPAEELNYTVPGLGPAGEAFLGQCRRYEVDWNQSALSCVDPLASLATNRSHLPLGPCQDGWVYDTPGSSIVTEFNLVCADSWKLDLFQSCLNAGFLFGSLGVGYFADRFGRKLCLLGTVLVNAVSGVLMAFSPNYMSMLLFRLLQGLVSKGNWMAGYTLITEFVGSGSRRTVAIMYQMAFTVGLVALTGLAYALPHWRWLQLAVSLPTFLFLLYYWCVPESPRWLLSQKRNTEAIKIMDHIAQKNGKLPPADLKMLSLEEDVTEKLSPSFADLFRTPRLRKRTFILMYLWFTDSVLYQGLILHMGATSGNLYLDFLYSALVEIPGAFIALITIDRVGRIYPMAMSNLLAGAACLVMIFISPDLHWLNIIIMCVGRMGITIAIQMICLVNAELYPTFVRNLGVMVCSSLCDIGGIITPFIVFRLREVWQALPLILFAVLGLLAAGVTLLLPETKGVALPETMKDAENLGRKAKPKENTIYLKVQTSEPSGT

[11] = Yan et al. ASCPT 2021 poster, cited from earlier work
[12] = AUC in animals/(predicted) AUC in humans

Sequence of P-gp (P08183 whole entry): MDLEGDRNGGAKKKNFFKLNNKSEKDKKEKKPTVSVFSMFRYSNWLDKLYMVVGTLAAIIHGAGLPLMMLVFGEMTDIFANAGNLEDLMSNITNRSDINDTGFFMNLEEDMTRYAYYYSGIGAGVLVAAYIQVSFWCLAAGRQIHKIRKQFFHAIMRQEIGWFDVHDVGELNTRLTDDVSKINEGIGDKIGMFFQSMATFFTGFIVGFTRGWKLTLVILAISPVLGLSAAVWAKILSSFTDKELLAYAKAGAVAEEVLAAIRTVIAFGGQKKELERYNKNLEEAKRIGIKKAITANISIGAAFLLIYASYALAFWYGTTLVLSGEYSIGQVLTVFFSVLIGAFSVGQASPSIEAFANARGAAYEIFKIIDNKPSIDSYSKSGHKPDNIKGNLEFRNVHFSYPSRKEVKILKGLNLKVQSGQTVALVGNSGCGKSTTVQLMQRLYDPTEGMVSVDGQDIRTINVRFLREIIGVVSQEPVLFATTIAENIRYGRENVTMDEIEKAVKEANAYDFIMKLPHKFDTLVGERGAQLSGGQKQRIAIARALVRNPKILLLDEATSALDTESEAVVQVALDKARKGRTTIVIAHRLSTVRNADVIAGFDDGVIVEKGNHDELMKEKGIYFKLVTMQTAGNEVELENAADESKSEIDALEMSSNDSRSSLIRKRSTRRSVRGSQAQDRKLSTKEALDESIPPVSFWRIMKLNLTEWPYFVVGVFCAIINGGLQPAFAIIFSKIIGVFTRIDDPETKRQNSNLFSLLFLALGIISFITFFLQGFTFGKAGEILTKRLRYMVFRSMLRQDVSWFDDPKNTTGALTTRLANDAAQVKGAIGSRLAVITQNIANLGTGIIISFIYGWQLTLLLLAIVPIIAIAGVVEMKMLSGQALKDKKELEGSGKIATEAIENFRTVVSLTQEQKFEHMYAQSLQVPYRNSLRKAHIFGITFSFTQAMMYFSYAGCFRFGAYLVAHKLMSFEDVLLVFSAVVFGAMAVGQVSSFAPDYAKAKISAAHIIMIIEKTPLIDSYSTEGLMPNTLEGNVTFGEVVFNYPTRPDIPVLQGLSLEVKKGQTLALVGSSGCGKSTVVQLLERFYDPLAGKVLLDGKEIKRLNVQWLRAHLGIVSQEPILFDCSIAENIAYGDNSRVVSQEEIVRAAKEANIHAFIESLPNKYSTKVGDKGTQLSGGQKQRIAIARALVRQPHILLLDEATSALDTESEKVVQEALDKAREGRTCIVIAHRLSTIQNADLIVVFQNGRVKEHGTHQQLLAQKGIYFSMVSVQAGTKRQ

**Q.** With `CN1C(=O)[C@@H](NC(=O)c2n[nH]c(Cc3ccccc3)n2)COc2ccc(C#CC(C)(C)O)cc21` [Compound I, (S)-5-benzyl-N-(7-(3-hydroxy-3-methylbut-1-yn-1-yl)-5-methyl-4-oxo-2,3,4,5-tetrahydrobenzo[b][1,4]oxazepin-3-yl)-1H-1,2,4-triazole-3-carboxamide] as the compound, how does the “inhibition of substrates of OATP1B3 transporter” value [1] read?
**A.** Its value is “may also inhibit”.

**Q.** And the “induction of CYP3A5” value [2]?
**A.** Its value is “may induce”.

**Q.** What about the “Margin of Safety, monkey NOAEL vs human 50 mg” value [3, 12] of the same compound?
**A.** The value was 17 X.

**Q.** What about the “Margin of Safety, monkey NOAEL vs human 125 mg” value [3, 12] of the same compound?
**A.** The value was 7 X.

**Q.** And the “doses with mortality related to secondary infections” value ([3]; monkeys, toxicology studies up to 9 months)?
**A.** The value was at least 250 mg/kg/day.

**Q.** What about the NOAEL at 9 months [4] of the same compound?
**A.** Its NOAEL at 9 months is 150 mg/kg.

**Q.** And the AUC(0-t) ([4]; po, plasma toxicokinetics on Day 273, 150 mg/kg/day, read-out: AUC0-24 at monkey NOAEL)?
**A.** Its AUC(0-t) is 278 µg·h/mL.

**Q.** What about the “Margin of Safety, rat NOAEL vs human 50 mg” value [5, 12] of the same compound?
**A.** Its value is 67 X.

**Q.** What about the “Margin of Safety, rat NOAEL vs human 125 mg” value [5, 12] of the same compound?
**A.** The value was 27 X.

**Q.** And the “toxicology findings in rats” value ([5]; toxicology studies up to 6 months)?
**A.** Its value is “minimal effects”.

**Q.** What about the AUC(0-t) [6] of the same compound?
**A.** Its AUC(0-t) is 1080 µg·h/mL.

**Q.** And the “inhibition of substrates of P-gp transporter” value [7]?
**A.** Its value is “may also inhibit”.

**Q.** And the “Margin of Safety, rabbit EFD NOEL vs human 50 mg” value [8, 12]?
**A.** Its value is 29 X.

**Q.** And the “Margin of Safety, rabbit EFD NOEL vs human 125 mg” value [8, 12]?
**A.** Its value is 12 X.

**Q.** And the “developmental and reproductive toxicology outcome, rabbits” value ([8]; concerns for women of childbearing potential)?
**A.** The value was “did not reveal any concerns”.

**Q.** And the “Rabbit EFD NOEL dose” value ([8]; rabbit embryofetal development study)?
**A.** Its value is 120 mg/kg/day.

**Q.** What about the AUC(0-t) [9] of the same compound?
**A.** Its AUC(0-t) is 464 µg·h/mL.

**Q.** And the “inhibition of substrates of OCT1 transporter” value [10]?
**A.** Its value is “may also inhibit”.

**Q.** And the safety and tolerability ([11]; following single and multiple doses)?
**A.** Its safety and tolerability is “generally safe, and well tolerated”.

**Q.** What about the pharmacokinetics linearity ([11]; tested dose range up to 1000 mg) of the same compound?
**A.** Its pharmacokinetics linearity is “linear pharmacokinetics”.

Source: patent publication US20250000872A1, “FORMULATIONS AND DOSING REGIMENS FOR RIP1 KINASE INHIBITORS FOR TREATING AUTOIMMUNE AND INFLAMMATORY DISEASES” (Eli Lilly and Company, priority 2023, published 2025)
